Legend:
TMD-8 = test: In vitro tumor cell proliferation inhibition, TMD-8 (CellTiter-Glo); format: cell-based; conditions: Homo sapiens, TMD8; TMD-8 cells, 72 h
Description: (§1) (1) Method • The tumor cell line (TMD-8/OCY-LY10) was suspended in RPMI1640+FBS10% and cultured in an incubator (37° C., 5% CO2). Cells were passaged periodically, and cells at logarithmic growth phase were collected for plating. • Cell staining was performed with trypan blue and viable cells were counted. • Cell concentration was adjusted to 7000 cells/well with medium. • 90 μL of cell suspension was added to a 96-well plate and cell-free culture medium was added to the blank control wells. • Cells in the 96-well plate were incubated overnight in an incubator (37° C., 5% CO2, 100% relative humidity). • Preparation of 400× compound storage plates: test compounds and reference drug were each dissolved in DMSO and 3× diluted from the highest concentration (400 μM) to the lowest concentration (0.61 μM). • Preparation of 10× compound working solutions: 78 μL of cell culture medium was added to a V-bottom 96-well plate, and 2 μL of the compound was pipetted from the 400× compound storage plate into the 96-well plate. Vehicle control wells and blank control wells were added with 2 μL of DMSO. […] Inhibition rates of compounds at different concentrations were calculated in Excel, followed by plotting the inhibition curves and calculating IC50 values with GraphPad Prism.

TMD-8 xenograft tumor = TMD-8 xenograft tumor model; format: in vivo; conditions: intragastric 25 mg/kg once/day
Description: (§2) CB17/SCID female mice with serious immune deficiency were purchased from Beijing Vital River Laboratory Animal Technology Co., Ltd. and bred in SPF animal houses. Human TMD-8 cells (Shanghai Junrui-UFBN1682) were cultured in an RPMI 1640 culture medium containing 10% fetal bovine serum, 100 U/mL penicillin and 100 μg/mL streptomycin through monolayer culture in vitro in an incubator (37° C., 5% C02). Routine treatment was performed twice a week for passaging. At a cell saturation of 80%-90% and a required number, the cells were harvested and counted. 0.2 mL (1×10^7) of TMD-8 cells (together with matrigel at a volume ratio of 1:1) were subcutaneously inoculated into the right back of each mouse, and the tumor size could be measured about one week after inoculation. Tumor size was measured using a vernier caliper and tumor volume was calculated using the following formula: tumor volume=(length×width^2)/2.

OCI-LY10 = test: In vitro tumor cell proliferation inhibition, OCI-LY10 (CellTiter-Glo); format: cell-based; conditions: Homo sapiens; OCI-LY10 cells, 72 h
Description: as §1

OCI-LY10 xenograft tumor = OCI-LY10 xenograft tumor model; format: in vivo; conditions: intragastric 25 mg/kg once/day, day 28
Description: as §2, with “OCI-LY10” for “TMD-8”, “Junrui-UFBN0102)” for “Junrui-UFBN1682)”

C=CC(=O)N1CCC[C@@H](n2nc(-c3ccc(Oc4ccccc4)cc3)c3c(N)ncnc32)C1 [Ibrutinib, ibrutinib, reference compound]
IC50 (TMD-8): 0.4 nM | TGI (TMD-8 xenograft tumor): 90% | IC50 (OCI-LY10): 1.7 nM | TGI (OCI-LY10 xenograft tumor): 94%
